Assay results: patent US5403932A, “Phosphoramidates useful as antitumor agents” (Research Corporation Technologies, Inc., priority 1994, dated 1995)
Where two headings read alike, the source gives them in different places.

Columns and labels:
[1] = system: HT29 human colon cancer cells; experiment: Aerobic and hypoxic selectivity against human colon cancer HT29 cells, colony formation; type: cell-based; conditions: 4 h
Protocol: HT29 human colon cancer cells were maintained in exponential growth in α-MEM medium supplemented with 10% fetal bovine serum and 25 mM HEPES buffer, and cultured at 37° C. and 3% CO2. For drug treatments, 1-2×10^6 cells in 10 ml of medium were transferred to glass reaction vials. For the hypoxic experiments, the medium was first gassed for 3 hr with 95% nitrogen/5% CO2 to achieve a partial pressure of oxygen <100 ppm. These cell suspensions were then treated with drug at different concentrations under either aerobic or hypoxic conditions for 4 hr in the reaction vials. The medium was removed, the cells were washed, and a colony formation assay was carried out as described above in Example 15. Colonies with […] 50 cells were counted 12-14 days after plating. The log of the surviving fraction was plotted against drug concentration, and from this plot the concentration required to reduce the colony number to 10% of control (LC90) was determined. The results of this test on representative compounds of the present invention are depicted in Table 4.

B16 melanoma cells = experiment: Cytotoxicity against B16 melanoma cells, colony formation; type: cell-based; conditions: B16 mouse melanoma, 2 h treatment; read-out: Drug Concentration required to kill 90% of Clonogenic Tumor Cells In Vitro (LC90), B/16
Protocol: B16 melanoma cells in exponential growth (2-3×10^6 cells in 10 ml of serum-free MEM medium) were treated with drug for 2 hr. The cells were separated, washed, and resuspended in MEM medium supplemented with 10% fetal bovine serum. The cells were plated in 60-mm culture dishes at a density of 50-50,000 cells/plate (depending upon the drug concentration used) and then incubated for 8 days in a CO2 incubator at 37°. The colonies were fixed and stained with 0.5% crystal violet in ethanol and counted. The log of the surviving fraction was plotted against drug concentration, and from this plot the concentration required to reduce the colony number to 10% of control (LC90) was determined.

[2] = system: KHT/iv cells (mouse KHT sarcoma); experiment: Hypoxic cell selectivity using KHT/iv cells, clonogenic assay; type: cell-based; conditions: 4 h at 37°; for LC99, Aerobic: aerobic (95:5 air:CO2); for LC99, Hypoxic: hypoxic (95:5 nitrogen:CO2)
Protocol: KHT/iv cells were adapted to cell culture from tile mouse KHT sarcoma by Dietmar Siemann, University of Rochester. Cells were maintained in Eagle's basal medium and 10% fetal calf serum for all experiments. Cells in exponential growth were trypsinized from monolayer cultures and separated from one another by agitation in a gas-tight syringe at a density of 1-2×10^7 cells/ml for 15 minutes at 37°. The cells were then resuspended in HEPES-buffered Eagle's medium contained in stirred gas-tight vials at a final density of 2×10^7 cells/ml; before cells or drugs were added, the vials were pre-equilibrated with humidified gas having tile composition 95:5 air:CO2 for aerobic treatment or 95:5 nitrogen:CO2 from hypoxic treatment. Oxygen tension in the hypoxic medium was approximately 100 ppm after tile equilibration period. Drug was dissolved a volume of ethanol that would give a final ethanol concentration of 1% in the medium; this concentration of ethanol had no effect on the plating efficiency of control cell preparations. Cells were incubated with drug under aerobic or hypoxic conditions at 37° for 4 hours. The cells were then removed from the vials, washed with drug-free medium, counted, and plated for cell survival using a standard clonogenic assay. Cell surviving fraction was plotted vs. drug concentration, and the LC99 values were obtained from the least squares equation.

[3] = system: L1210/O (cyclophosphamide sensitive) murine leukemia cells; experiment: Soft agar colony-forming assay, in vitro cytotoxicity against cyclophosphamide-sensitive L1210 murine leukemia; type: cell-based, mouse; conditions: 1 h at 37°, 99% cell kill
Protocol: (§1) The In Vitro cytotoxic activity of representative compounds under hypoxic and aerobic conditions were evaluated as follows.
(§2) A soft agar colony-forming assay according to the procedure of Chu and Fischer, Biochem. Pharmacol., 17, 753-767 (1968) was used and modified where necessary. Cultured mouse L1210 and P388 sensitive cells were purchased from EG&G Mason Research Institute, Tumor Bank, Worchester, Ma. Cultured cyclophosphamide resistant L1210 and P388 cells were obtained from Dr. Robert Struck of Southern Research Institute, Birmingham, Ala. Typically, the desired cells (2-3×10^6 cells/ml) in exponential growth and suspended in 6.5 ml of Fischer's medium (Gibco Lab., Grand Island, N.Y.) were divided into six groups (1 control and 5 treated groups) containing an equal number of cells in 1 ml. These cells were then treated with varying doses of drug diluted with media to give a total volume of 10 ml, and incubated for one hour at 37° C. The cells were washed three times with 3 ml of supplemented Fischer's medium (containing 10% horse serum) by centrifuge (800×g), removal of media by suction, and resuspension of the pellet in media (5 ml). A 1-ml portion was used to determine the cell count with a Coulter counter. From the remainder, a 5-ml suspension of cells was prepared at a density of 10^5 cells/ml, and between 10^2 and 10^5 cells were placed on soft agar and incubated at 37° C. Colonies were counted after 10 days. The log of the surviving fraction was plotted vs. drug concentration and from this plot the LC99 was obtained. (By definition, the LC99 value represents the concentration of drug necessary to effect a 99% cell kill.)

[4] = system: P388/O (cyclophosphamide sensitive) murine leukemia cells; experiment: Soft agar colony-forming assay, in vitro cytotoxicity against cyclophosphamide-sensitive P388 murine leukemia; type: cell-based, mouse; conditions: 1 h at 37°, 99% cell kill
Protocol: as §1, §2

[5] = system: L1210/CP (cyclophosphamide resistant) murine leukemia cells; experiment: Soft agar colony-forming assay, in vitro cytotoxicity against cyclophosphamide-resistant L1210 murine leukemia; type: cell-based, mouse; conditions: 1 h at 37°, 99% cell kill
Protocol: as §1
as §2, with “From the remainder, a 5-ml suspension of cells was prepared at a density of 10^5 cells/ml, and between 10^2 and 10^5 cells were placed on soft agar and incubated at 37° C.” left out, “The log of the surviving fraction was plotted vs. drug concentration and from this plot the LC99 was obtained. (By definition, the LC99 value represents the concentration of drug necessary to effect a 99% cell kill.)” left out

[6] = system: P388/CP (cyclophosphamide resistant) murine leukemia cells; experiment: Soft agar colony-forming assay, in vitro cytotoxicity against cyclophosphamide-resistant P388 murine leukemia; type: cell-based, mouse; conditions: 1 h at 37°, 99% cell kill
Protocol: as §1
as §2, with “From the remainder, a 5-ml suspension of cells was prepared at a density of 10^5 cells/ml, and between 10^2 and 10^5 cells were placed on soft agar and incubated at 37° C.” left out, “The log of the surviving fraction was plotted vs. drug concentration and from this plot the LC99 was obtained. (By definition, the LC99 value represents the concentration of drug necessary to effect a 99% cell kill.)” left out

[7] = Table 4, aerobic, read-out: Drug Concentration required to kill 90% of Clonogenic Tumor Cells In Vitro (LC90), HT29 Aerobic
[8] = Table 4, hypoxic (95% nitrogen/5% CO2), read-out: Drug Concentration required to kill 90% of Clonogenic Tumor Cells In Vitro (LC90), HT29 Hypoxic
[9] = Table 3, aerobic, read-out: Drug Concentration required to kill 90% of Clonogenic Tumor Cells In Vitro (LC90), HT29 Aerobic
[10] = Table 3, hypoxic (95% nitrogen/5% CO2), read-out: Drug Concentration required to kill 90% of Clonogenic Tumor Cells In Vitro (LC90), HT29 Hypoxic

| SMILES | IC90 (B16 melanoma cells) [µM] | IC90 [1, 9] [µM] | IC90 [1, 10] [µM] | further results |
| --- | --- | --- | --- | --- |
| CC(OP(=O)(N(CCCl)CCCl)N(CCCl)CCCl)c1ccc([N+](=O)[O-])cc1 (centres unmarked) | – | – | – | IC90 [1, 7]: > 500 µM; IC90 [1, 8]: 45 µM |
| CN(C)CCOC(=O)CC(OP(=O)(N(CCCl)CCCl)N(CCCl)CCCl)c1ccc([N+](=O)[O-])s1 (centres unmarked) [Compound 14, O-(1-(5-nitro-2-thiophene)-2-(2-N,N-dimethylaminoethoxycarbonyl)ethyl)-N,N,N'N'-tetrakis-(2-chloroethyl)-phosphoramide] | 2.8 | 7.5 | 3 | – |
| NP(=O)(OCc1ccccc1[N+](=O)[O-])N(CCCl)CCCl (centres unmarked) [Compound 2-nitro] | – | – | – | LC99, Aerobic [2]: 700; LC99, Hypoxic [2]: 230 |
| COC(=O)CC(OP(N)(=O)N(CCCl)CCCl)c1ccccc1[N+](=O)[O-] (centres unmarked) [2-NO2 Ph, methyl 3-(2-nitrophenyl)-3-(N,N-bis(2-chloroethyl)phosphorodiamido)propionate] | – | – | – | LC99 [3]: 172; LC99 [4]: 134 |
| COC(=O)CC(OP(N)(=O)N(CCCl)CCCl)c1ccc([N+](=O)[O-])cc1 (centres unmarked) [4-NO2 Ph, methyl 3-(4-nitrophenyl)-3-(N,N-bis-(2-chloroethyl)phosphorodiamido) propionate] | – | – | – | LC99 [5]: 152; LC99 [6]: 77; LC99 [3]: 138; LC99 [4]: 82 |
| CCOC(=O)CC(OP(=O)(N(CCCl)CCCl)N(CCCl)CCCl)c1cc([N+](=O)[O-])ccn1 (centres unmarked) [Compound 17, O-(1-(4-nitro-2-pyridyl)-2-carbethoxyethyl)-N,N,N',N'-tetrakis(2-Chloroethyl)phosphoramide] | 50 | 80 | 35 | – |
| COC(=O)CC(OP(N)(=O)N(CCCl)CCCl)c1ccccc1 (centres unmarked) [Ph, reference compound] | – | – | – | LC99 [3]: 350; LC99 [4]: 300 |
| CCOC(=O)CC(OP(=O)(N(CCCl)CCCl)N(CCCl)CCCl)c1ccc([N+](=O)[O-])cc1 (centres unmarked) [Compound 12, O-(1-(4-nitrophenyl)-2-carbethoxyethyl)-N,N,N',N'-tetrakis(2-chloroethyl)phosphoramide] | > 100 | 80 | 12 | – |
| CN(C)CCOC(=O)CC(OP(=O)(N(CCCl)CCCl)N(CCCl)CCCl)c1ccc([N+](=O)[O-])cc1 (centres unmarked) [Compound 13, O-(1-(4-nitrophenyl)-2-(2-N,N-dimethylaminoethoxycarbonyl)ethyl)-N,N,N'N'-tetrakis-(2-chloroethyl)phosphoramide] | < 2 | 60 | 35 | – |
| CCOC(=O)CC(OP(=O)(N(CCCl)CCCl)N(CCCl)CCCl)c1ccc([N+](=O)[O-])s1 (centres unmarked) [Compound 15, O-(1-(5-nitro-2-thiophene)-2-carbethoxyethyl)-N,N,N'N'-tetrakis(2-chloroethyl)phosphoramide] | 3 | – | – | – |
| CCOC(=O)CC(OP(N)(=O)N(CCCl)CCCl)c1cc(CN(C)C)cc2cc([N+](=O)[O-])cnc12 (centres unmarked) | – | – | – | IC90 [1, 7]: 700 µM; IC90 [1, 8]: 95 µM |
| NP(=O)(OCc1ccc([N+](=O)[O-])cc1)N(CCCl)CCCl (centres unmarked) [Compound 4-nitro] | – | – | – | LC99, Aerobic [2]: 320; LC99, Hypoxic [2]: 120 |
| CCOC(=O)CC(OP(=O)(N(CCCl)CCCl)N(CCCl)CCCl)c1ccc([N+](=O)[O-])c(C)n1 (centres unmarked) [Compound 16, O-(1(6-methyl-5-nitro-2-pyridyl)-2-carbethoxyethyl)-N,N,N'N'-tetrakis(2-chloroethyl)phosphoramide] | 150 | 110 | 25 | – |
